{
  "source": "patent US20160137968A1",
  "about": "“TISSUE CULTURE TESTING SYSTEMS AND METHODS OF USE” (Barry University, priority 2014, published 2016)",
  "key": {"A. baumannii": {"system": "A. baumannii", "assay": "Bioburden reduction in infected full-thickness skin tissue samples in Franz cells (total CFUs)", "format": "cell-based", "conditions": "1 ATM, 0.1 liters/minute", "source_text": "(§1) After an infection period is over, tissue samples can be homogenized, and serial dilutions can be grown on LB agar plates in order to facilitate the counting of colony formation units (CFUs), which approximate the level of bacteria present in the sample after infection. Other methods of quantifying infection and the various manifestations of infection are also possible, as would be recognized by one of ordinary skill in the art based on the present disclosure. For example, activation of various cytokines can be measured, as well as gene expression (upregulation and/or down regulation) of various genetic regulators of inflammatory and immune responses taking place in cells and tissues. These experimental procedures allow for the investigation of various experimental factors and perturbations, such as NO pressures, exposure times, and flow rates, in the context of skin infection and how they may influence bioburden reduction and wound healing.\n(§2) In FIG. 4, the growth curves of several pathogenic bacteria are shown, including MRSA, Acinetobacter and Pseudomonas. In order to determine whether a given set of experimental factors or perturbations relating to NO exposure reduces bioburden, tissue samples were infected with the same concentration of bacteria under the same experimental conditions. […] In some aspects, 15 μl of a bacterial culture is sufficient to infect a cell or tissue sample.\n(§3) Full-thickness skin tissue samples (e.g., EPIDERM tissue model from MatTek Corp., Ashland, Mass. 01721) were exposed to various experimental factors. […] The skin samples used were infected with S. aureus for 24 hours, followed by 90 minutes of pressurized exposure at a flow rate of 0.1 liters/minute.\n(§4) The samples used were infected with Staphylococcus, MRSA, Acinetobacter or Pseudomonas.\n(§5) Experiments were also conducted as described above in the previous examples to determine the minimum amount of exposure time necessary to obtain maximum reductions in bioburden. In some cases, determining the minimum tissue exposure time to gNO can reduce any potentially detrimental effects on the health of the tissue, while still reducing bioburden. Flow rate was maintained at 0.1 liters/minute, but the exposure time was shortened to 60 minutes at 1 ATM (independent of and in addition to the pressure applied by the external environment)."}, "MRSA": {"system": "MRSA", "assay": "Bioburden reduction in infected full-thickness skin tissue samples in Franz cells (total CFUs)", "format": "cell-based", "conditions": "1 ATM, 0.1 liters/minute", "source_text": "as §1, §2, §3, §4, §5"}, "P. aeruginosa": {"system": "P. aeruginosa", "assay": "Bioburden reduction in infected full-thickness skin tissue samples in Franz cells (total CFUs)", "format": "cell-based", "conditions": "1 ATM, 0.1 liters/minute", "source_text": "as §1, §2, §3, §4, §5"}, "[1]": {"system": "full-thickness skin tissue samples", "assay": "Tissue viability using MTT assays", "format": "cell-based, human", "experimental": "Experiments were also conducted to investigate the effects of various NO pressures, exposure times, and flow rates on tissue viability using MTT assays. An MTT assay is a colorimetric assay for assessing cell viability. NAD(P)H-dependent cellular oxidoreductase enzymes may, under defined conditions, reflect the number of viable cells present. These enzymes are capable of reducing the tetrazolium dye MTT 3-(4,5-dimethylthiazol-2-yl)-2,5-diphenyltetrazolium bromide to its insoluble formazan, which has a purple color. Other closely related tetrazolium dyes including XTT, MTS and the WSTs, can also be used. Tetrazolium-based dye assays can also be used to measure cytotoxicity (loss of viable cells) or cytostatic activity (shift from proliferation to quiescence) of potential medicinal agents and toxic materials."}, "S. aureus": {"system": "S. aureus", "assay": "Bioburden reduction in infected full-thickness skin tissue samples in Franz cells (total CFUs)", "format": "cell-based, Staphylococcus aureus", "conditions": "0.1 liters/minute", "source_text": "as §1, §2, §3, §4, §5\nExperiments were also conducted as described above in the previous examples to determine the minimum amount of gNO pressure necessary to obtain maximum reductions in bioburden. In some cases, determining the minimum amount of gNO pressure can reduce any potentially detrimental effects on the health of the tissue, while still reducing bioburden."}},
  "data": [
    {"compound": "[N]=O", "note": "[gNO, Nitric Oxide]", "values": [
      {"measurement": "log reduction in bioburden", "setting": "A. baumannii; A. baumannii, 1% NO, 90 min, infected 24 hours", "value": "5-6 log"},
      {"measurement": "reduction of bioburden compared to controls", "setting": "A. baumannii; A. baumannii, 60 minutes", "value": "effective"},
      {"measurement": "bacterial bioburden (CFUs)", "setting": "A. baumannii; Acinetobacter, 1% NO, 120 minutes, 24 hours of infection", "value": "completely eliminated"},
      {"measurement": "bacterial bioburden (CFUs)", "setting": "MRSA; 1% NO, 120 minutes, 24 hours of infection", "value": "completely eliminated"},
      {"measurement": "log reduction in bioburden", "setting": "MRSA; 1% NO, 90 min, infected 24 hours", "value": "5-6 log"},
      {"measurement": "reduction of bioburden compared to controls", "setting": "MRSA; 60 minutes", "value": "did not show significant reduction of bioburden"},
      {"measurement": "log reduction in bioburden", "setting": "P. aeruginosa; P. aeruginosa, 1% NO, 90 min, infected 24 hours", "value": "5-6 log"},
      {"measurement": "reduction of bioburden compared to controls", "setting": "P. aeruginosa; P. aeruginosa, 60 minutes", "value": "effective"},
      {"measurement": "bacterial bioburden (CFUs)", "setting": "P. aeruginosa; Pseudomonas, 1% NO, 120 minutes, 24 hours of infection", "value": "completely eliminated"},
      {"measurement": "tissue viability (MTT)", "setting": "[1]; 1% NO with or without pressure, as exposure time decreased", "value": "viability increased"},
      {"measurement": "tissue viability (MTT)", "setting": "[1]; combination of pressurized gNO and increasing concentrations of NO", "value": "caused a decrease in viability"},
      {"measurement": "bioburden reduction", "setting": "S. aureus; NO at 0.25 ATM, 90 minutes, infected 24 hours", "value": "sufficient to reduce bioburden"},
      {"measurement": "bioburden reduction", "setting": "S. aureus; NO at 0.3 ATM, 90 minutes, infected 24 hours", "value": "sufficient to reduce bioburden"},
      {"measurement": "log reduction in bioburden", "setting": "S. aureus; S. aureus (biofilm-forming), 1% NO, 90 min, 1 ATM, infected 24 hours", "value": "~3", "unit": "log"},
      {"measurement": "reduction of bioburden compared to controls", "setting": "S. aureus; S. aureus, 60 minutes, 1 ATM", "value": "did not show significant reduction of bioburden"},
      {"measurement": "bacterial bioburden (CFUs)", "setting": "S. aureus; Staphylococcus, 1% NO, 1 ATM, 120 minutes, 24 hours of infection", "value": "completely eliminated"},
      {"measurement": "bioburden (total CFUs)", "setting": "S. aureus; pressurized gNO at 1 ATM compared to 0 ATM, 90 minutes, infected 24 hours", "value": "did significantly reduce bioburden"}
    ]}
  ]
}
